From publication PMC10763615, “Identification and engineering of potent cyclic peptides with selective or promiscuous binding through biochemical profiling and bioinformatic data analysis” (RSC Chemical Biology, 2023)
pKd: −log10 of the molar value. Positions of bridges follow the written chain, without caps; N, C: chain ends. Residues, ends and D or L forms follow the SMILES beside them.

What was measured:
Format in all cases: binding
FGF-R1C ECD = target: T1, FGF-R1C ECD (Homo sapiens, UniProt P11362); assay: biochemical; design: DNA constructs for the extracellular domain (ECD) of human FGF-; HPC4 (C); made in house; host or cells: HEK 293-6E
T1 sequence (P11362 22-376 limits assumed): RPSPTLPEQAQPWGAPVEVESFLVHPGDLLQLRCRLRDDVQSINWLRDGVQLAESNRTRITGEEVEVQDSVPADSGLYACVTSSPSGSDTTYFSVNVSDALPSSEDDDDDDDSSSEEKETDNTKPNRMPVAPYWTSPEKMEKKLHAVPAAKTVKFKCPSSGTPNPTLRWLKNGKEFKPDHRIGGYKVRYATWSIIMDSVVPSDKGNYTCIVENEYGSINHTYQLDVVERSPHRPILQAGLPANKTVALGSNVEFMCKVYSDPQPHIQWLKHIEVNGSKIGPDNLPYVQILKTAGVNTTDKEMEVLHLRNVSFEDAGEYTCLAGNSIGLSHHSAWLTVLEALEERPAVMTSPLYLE
Experimental: (§1) KD affinity binding measurements were obtained by biolayer interferometry (BLI) instruments (Fortebio Octet HTX, or Sartorius Octet RH16 using either 8 or 16 channel mode.
(§2) For single concentration binding experiments, 50 μM peptide stocks in folding buffer were diluted 1:50 in mRNA display selection buffer (PBS pH7.4 supplemented with 0.05% Tween-20 and 0.01% BSA) in either a 96 well black plate, or a 384 well tilted bottom microplate (ForteBio). Biotinylated FGF-R protein was loaded onto Streptavidin-functionalised biosensors (ForteBio) and immersed into ~1 μM peptide to obtain association kinetics curves. Dissociation kinetics curves were obtained by subsequent immersion of ligand-associated loaded sensors into a 1:50 dilution of folding buffer in mRNA display selection buffer. Fitted KD data was adjusted for concentration as determined by UPLC-CAD.
(§3) For accurate multi-concentration KD determination, dilution series of each peptide were made, and association and dissociation kinetics curves were obtained as above for each concentration to fit a multi-point KD binding model. Data collection and analysis was performed using the Octet Instrument Control […]
(§4) concentration assay kinetics curves shown in supplementary Figure S 19-24.

FGF-R3C ECD = target: T2, FGF-R3C ECD (Homo sapiens, UniProt P22607); assay: biochemical; design: DNA constructs for the extracellular domain (ECD) of human FGF-; HPC4 (C); made in house; host or cells: HEK 293-6E
T2 sequence (P22607 23-375 limits assumed): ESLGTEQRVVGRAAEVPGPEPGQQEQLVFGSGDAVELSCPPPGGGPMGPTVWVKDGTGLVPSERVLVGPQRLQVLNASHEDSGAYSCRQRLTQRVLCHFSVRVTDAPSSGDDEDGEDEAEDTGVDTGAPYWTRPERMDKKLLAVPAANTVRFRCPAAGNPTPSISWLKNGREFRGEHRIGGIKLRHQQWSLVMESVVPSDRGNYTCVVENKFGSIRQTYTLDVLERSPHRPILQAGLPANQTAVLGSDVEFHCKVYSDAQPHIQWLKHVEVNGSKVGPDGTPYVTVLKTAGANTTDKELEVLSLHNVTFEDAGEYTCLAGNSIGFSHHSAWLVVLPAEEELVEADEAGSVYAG
Experimental: as §1, §2, §3, §4

FGF-R4 ECD = target: T3, FGF-R4 ECD (Homo sapiens, UniProt P22455); assay: single concentration BLI of crude peptides; conditions: crude T18 selection 1 (1:1:1) peptides, single concentration BLI (Table S4); read-out: KD (4)
T3 construct: DNA constructs for the extracellular domain (ECD) of human FGF-; HPC4 (C); made in house; host or cells: HEK 293-6E
T3 sequence (P22455 22-369 limits assumed): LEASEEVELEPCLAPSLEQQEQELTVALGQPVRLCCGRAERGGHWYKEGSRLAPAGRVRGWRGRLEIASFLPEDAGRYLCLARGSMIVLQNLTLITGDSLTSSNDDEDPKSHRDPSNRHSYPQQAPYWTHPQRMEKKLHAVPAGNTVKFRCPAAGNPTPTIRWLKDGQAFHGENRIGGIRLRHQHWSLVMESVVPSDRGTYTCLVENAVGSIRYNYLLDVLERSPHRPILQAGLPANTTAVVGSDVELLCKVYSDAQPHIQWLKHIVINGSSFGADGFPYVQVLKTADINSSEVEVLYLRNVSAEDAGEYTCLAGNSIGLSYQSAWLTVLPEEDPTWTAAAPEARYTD
Experimental: as §1
as §2, with “UPLC-CAD. […]” for “UPLC-CAD.”

Structure (SMILES) | pKd (FGF-R1C ECD) | pKd (FGF-R3C ECD) | pKd (FGF-R4 ECD)
CSCC[C@H](NC(C)=O)C(=O)N[C@H]1CSSC[C@@H](C(=O)NCC(=O)N[C@@H](CO)C(=O)NCC(=O)N[C@@H](CO)C(=O)N[C@@H](CCC(=O)O)C(=O)N[C@@H](CCC(=O)O)C(=O)NCC(=O)N[C@@H](CO)C(=O)NCC(=O)N[C@@H](CO)C(=O)N[C@@H](CC(=O)O)C(=O)N[C@@H](Cc2ccc(O)cc2)C(=O)N[C@@H](CCCCN)C(=O)N[C@@H](CC(=O)O)C(=O)N[C@@H](CC(=O)O)C(=O)N[C@@H](CC(=O)O)C(=O)N[C@@H](CC(=O)O)C(=O)N[C@@H](CCCCN)C(N)=O)NC(=O)[C@H](Cc2ccccc2)NC(=O)[C@H](CCCCN)NC(=O)CNC(=O)[C@H](CCCCN)NC(=O)[C@H](Cc2c[nH]c3ccccc23)NC(=O)[C@H](CC(C)C)NC(=O)[C@H](CC(C)C)NC(=O)[C@H](Cc2ccccc2)NC(=O)[C@H](C)NC(=O)[C@H](CCCCN)NC(=O)[C@H](C)NC1=O (Ac-MCAKAFLLWKGKFCGSGSEEGSGSDYKDDDDK-NH2; disulfide 2-14) | < 5.00 | < 5.00 | < 5.00
CSCC[C@H](NC(C)=O)C(=O)N[C@H]1CSSC[C@@H](C(=O)NCC(=O)N[C@@H](CO)C(=O)NCC(=O)N[C@@H](CO)C(=O)N[C@@H](CCC(=O)O)C(=O)N[C@@H](CCC(=O)O)C(=O)NCC(=O)N[C@@H](CO)C(=O)NCC(=O)N[C@@H](CO)C(=O)N[C@@H](CC(=O)O)C(=O)N[C@@H](Cc2ccc(O)cc2)C(=O)N[C@@H](CCCCN)C(=O)N[C@@H](CC(=O)O)C(=O)N[C@@H](CC(=O)O)C(=O)N[C@@H](CC(=O)O)C(=O)N[C@@H](CC(=O)O)C(=O)N[C@@H](CCCCN)C(N)=O)NC(=O)[C@H](CCCNC(=N)N)NC(=O)[C@H](CO)NC(=O)[C@H](Cc2c[nH]cn2)NC(=O)[C@H](CCCCN)NC(=O)[C@H](CC(C)C)NC(=O)[C@H](Cc2c[nH]c3ccccc23)NC(=O)[C@H](CC(C)C)NC(=O)[C@H](CCCCN)NC(=O)[C@H](Cc2ccc(O)cc2)NC(=O)[C@H](Cc2ccc(O)cc2)NC(=O)[C@H](C(C)C)NC(=O)[C@H](C)NC1=O (Ac-MCAVYYKLWLKHSRCGSGSEEGSGSDYKDDDDK-NH2; disulfide 2-15) | < 5.00 |  | 8.15
CC[C@H](C)[C@@H]1NC(=O)[C@H](Cc2c[nH]cn2)NC(=O)[C@@H](NC(=O)[C@H](CCSC)NC(C)=O)CSSC[C@@H](C(=O)NCC(=O)N[C@@H](CO)C(=O)NCC(=O)N[C@@H](CO)C(=O)N[C@@H](CC(=O)O)C(=O)N[C@@H](Cc2ccc(O)cc2)C(=O)N[C@@H](CCCCN)C(=O)N[C@@H](CC(=O)O)C(=O)N[C@@H](CC(=O)O)C(=O)N[C@@H](CC(=O)O)C(=O)N[C@@H](CC(=O)O)C(=O)N[C@@H](CCCCN)C(N)=O)NC(=O)[C@H](C(C)C)NC(=O)[C@H](Cc2ccc(O)cc2)NC(=O)[C@H](Cc2c[nH]cn2)NC(=O)[C@H](Cc2ccccc2)NC(=O)[C@H](CCC(N)=O)NC(=O)[C@H](CC(N)=O)NC(=O)[C@H](CC(N)=O)NC(=O)[C@H](Cc2ccccc2)NC(=O)[C@H](Cc2ccc(O)cc2)NC(=O)[C@H](Cc2c[nH]c3ccccc23)NC1=O (Ac-MCHIWYFNNQFHYVCGSGSDYKDDDDK-NH2; disulfide 2-15) | < 5.00 |  | 8.22
CC[C@H](C)[C@@H]1NC(=O)[C@H](Cc2c[nH]cn2)NC(=O)[C@H](CCCNC(=N)N)NC(=O)[C@H](CCCCN)NC(=O)[C@@H](NC(=O)[C@H](CCSC)NC(C)=O)CSSC[C@@H](C(=O)NCC(=O)N[C@@H](CO)C(=O)NCC(=O)N[C@@H](CO)C(=O)N[C@@H](CCC(=O)O)C(=O)N[C@@H](CCC(=O)O)C(=O)NCC(=O)N[C@@H](CO)C(=O)NCC(=O)N[C@@H](CO)C(=O)N[C@@H](CC(=O)O)C(=O)N[C@@H](Cc2ccc(O)cc2)C(=O)N[C@@H](CCCCN)C(=O)N[C@@H](CC(=O)O)C(=O)N[C@@H](CC(=O)O)C(=O)N[C@@H](CC(=O)O)C(=O)N[C@@H](CC(=O)O)C(=O)N[C@@H](CCCCN)C(N)=O)NC(=O)[C@H](C(C)C)NC(=O)[C@H](Cc2ccc(O)cc2)NC(=O)[C@H](CC(C)C)NC(=O)[C@H](CCC(N)=O)NC(=O)[C@H](Cc2c[nH]c3ccccc23)NC(=O)[C@H](Cc2ccc(O)cc2)NC(=O)[C@H](CCCNC(=N)N)NC1=O (Ac-MCKRHIRYWQLYVCGSGSEEGSGSDYKDDDDK-NH2; disulfide 2-14) | 6.58 | 6.08 | 
CC[C@H](C)[C@@H]1NC(=O)[C@H](CCC(=O)O)NC(=O)[C@H](CCCNC(=N)N)NC(=O)[C@@H](NC(=O)[C@H](CCSC)NC(C)=O)CSSC[C@@H](C(=O)NCC(=O)N[C@@H](CO)C(=O)NCC(=O)N[C@@H](CO)C(=O)N[C@@H](CC(=O)O)C(=O)N[C@@H](Cc2ccc(O)cc2)C(=O)N[C@@H](CCCCN)C(=O)N[C@@H](CC(=O)O)C(=O)N[C@@H](CC(=O)O)C(=O)N[C@@H](CC(=O)O)C(=O)N[C@@H](CC(=O)O)C(=O)N[C@@H](CCCCN)C(N)=O)NC(=O)[C@H](Cc2ccccc2)NC(=O)[C@H](C)NC(=O)[C@H](CCCNC(=N)N)NC(=O)[C@H](Cc2ccc(O)cc2)NC(=O)[C@H](CC(C)C)NC(=O)[C@H](CCC(N)=O)NC(=O)[C@H](Cc2c[nH]c3ccccc23)NC(=O)[C@H](Cc2ccc(O)cc2)NC(=O)[C@H](CCCNC(=N)N)NC1=O (Ac-MCREIRYWQLYRAFCGSGSDYKDDDDK-NH2; disulfide 2-15) | < 5.00 | < 5.00 | 
CC[C@H](C)[C@@H]1NC(=O)[C@H](CCC(=O)O)NC(=O)[C@H](Cc2ccc(O)cc2)NC(=O)[C@@H](NC(=O)[C@H](CCSC)NC(C)=O)CSSC[C@@H](C(=O)NCC(=O)N[C@@H](CO)C(=O)NCC(=O)N[C@@H](CO)C(=O)N[C@@H](CC(=O)O)C(=O)N[C@@H](Cc2ccc(O)cc2)C(=O)N[C@@H](CCCCN)C(=O)N[C@@H](CC(=O)O)C(=O)N[C@@H](CC(=O)O)C(=O)N[C@@H](CC(=O)O)C(=O)N[C@@H](CC(=O)O)C(=O)N[C@@H](CCCCN)C(N)=O)NC(=O)[C@H](C(C)C)NC(=O)[C@H](CCCNC(=N)N)NC(=O)[C@H](CCC(N)=O)NC(=O)[C@H](CC(C)C)NC(=O)[C@H](CCCCN)NC(=O)[C@H](Cc2ccc(O)cc2)NC(=O)[C@H](Cc2c[nH]c3ccccc23)NC(=O)[C@H]([C@@H](C)CC)NC1=O (Ac-MCYEIIWYKLQRVCGSGSDYKDDDDK-NH2; disulfide 2-14) | < 5.00 | < 5.00 | 
CC[C@H](C)[C@@H]1NC(=O)CNC(=O)[C@H]([C@@H](C)O)NC(=O)[C@H](CO)NC(=O)[C@H]([C@@H](C)CC)NC(=O)[C@H](CC(N)=O)NC(=O)[C@H](CCCCN)NC(=O)[C@H](Cc2ccc(O)cc2)NC(=O)[C@@H](NC(=O)[C@H](CCSC)NC(C)=O)CSSC[C@@H](C(=O)NCC(=O)N[C@@H](CO)C(=O)NCC(=O)N[C@@H](CO)C(=O)N[C@@H](CC(=O)O)C(=O)N[C@@H](Cc2ccc(O)cc2)C(=O)N[C@@H](CCCCN)C(=O)N[C@@H](CC(=O)O)C(=O)N[C@@H](CC(=O)O)C(=O)N[C@@H](CC(=O)O)C(=O)N[C@@H](CC(=O)O)C(=O)N[C@@H](CCCCN)C(N)=O)NC(=O)[C@H](Cc2ccc(O)cc2)NC(=O)[C@H](CC(C)C)NC(=O)[C@H](Cc2ccccc2)NC1=O (Ac-MCYKNISTGIFLYCGSGSDYKDDDDK-NH2; disulfide 2-14) | < 5.00 | < 5.00 | 
